Entries after “also recorded” stand apart in the source; their conditions may differ.
B1: TAT-CPP32 mutant (protein)
chain: GRKKRRQRRRGYPYDVPDYACTERQANFLGKIWPGISLDNSYKMDYPEMGLCIIINNKNFHKSTGMTSRSGTDVDAANLRETFRNLKYEVRNKNDLTREEIVELMRDVSKEDHSKRSSFVCVLLSHGEEGIIFGTNGPVDLKKITNFFRGDRCRSLTGKPKLFIIQAMRGTELDCGIETSQVSQNYPIVQNLQGVDDDMACHKIPVEADFLYAYSTAPGYYSWRNSKDGSWFIQSLCAMLKQYADKLEFMHILTRVNRKVATEFESFSFDATFHAKKQIPCIVSMLTKELYFYH
modifications: left off: small tags and cut ends
B2: TAT-Dp16: TAT-p16 fusion protein containing the HIV D (p7-p1) cleavage site (protein)
chain: GRKKRRQRRRGCTERQANFLGKIWPMEPAAGSSMEPSADWLATAAARGRVEEVRALLEAGALPNAPNSYGRRPIQVMMMGSARVAELLLLHGAEPNCADPATLTRPVHDAAREGFLDTLVVLHRAGARLDVRDAWGRLPVDLAEELGHRDVARYLRAAAGGTRGSNHARIDAAEGPSDIPD
modifications: left off: small tags and cut ends
notes: TAT-p16 fusion protein containing the HIV D (p7-p1) cleavage site
B3: TAT-A-p16: HIV A (p17-p24) cleavage site inserted between the TAT and p16 domains (protein)
chain: GRKKRRQRRRGSQVSQNYPIVQNLQMEPAAGSSMEPSADWLATAAARGRVEEVRALLEAGALPNAPNSYGRRPIQVMMMGSARVAELLLLHGAEPNCADPATLTRPVHDAAREGFLDTLVVLHRAGARLDVRDAWGRLPVDLAEELGHRDVARYLRAAAGGTRGSNHARIDAAEGPSDIPD
modifications: left off: small tags and cut ends
notes: HIV A (p17-p24) cleavage site inserted between the TAT and p16 domains

What was measured:
Assay type in all cases: cell-based
[1] = tested on: Jurkat T-cells; assay: Transduction of FITC-labeled synthetic peptides into Jurkat T-cells (rate and intracellular concentration versus TAT); settings: for Intracellular Concentration / Rate Compared to TAT: FITC-labeled peptide, Jurkat T-cells; for Intracellular Concentration: at equilibrium, relative to the TAT peptide; for Rate Compared to TAT: sign relative to TAT
Protocol: The following artificial (i.e. synthetic) peptides were made by conventional peptide synthesis as described above. A goal of this experiment was to produce transduction domains that could transduce more effectively as judged by the intracellular concentration in transduced cells. The transduction domains were tested against a suitable control, which typically was the “natural” TAT or an Antp transduction domain. Briefly, a FITC group was synthetically attached to N-terminus of 100% of each peptide so that transduction rate and intracellular concentration of each peptide could be quantified at equilibrium. The TAT transduction domain is recognized to be alpha-helical. In each synthetic peptide sequence, an alpha-helix was modeled with varying amounts of Arg on one face. That is, a series of synthetic peptides was designed that contained varying amounts of Arg residues on one surface and substituted with Ala residues. Both Ala and Arg residues have the highest probability/energetics for maintaining an alpha-helical structure. See FIG. 7, which depicts each peptide as a helical wheel projection. The peptides are shown below in Table 2.
The synthetic peptides were transduced into Jurkat T-cells along lines described above in Example 4.

[2] = tested on: Jurkat T-cells infected by HIV (strain NLHX); assay: Killing of HIV-infected Jurkat T-cells, trypan blue exclusion and microscopy
Protocol: About 5×10^6 Jurkat T-cells were infected by HIV (strain NLHX; about 1×10^5 to 1×10^6 infectious virus per ml). The cells were propagated in RPMI media. Approximately 4 to 7 days after the infection, the media was removed from the plates and about 35 to 45 nanomoler of the TAT-CPP32 fusion protein was added to the cells. The cells were incubated with the fusion proteins for about 30 minutes to allow transduction into the cells. […] Subsequently, media was added back to the plates and after about 18 hours post-transduction, the cells were examined for cell killing using conventional trypan blue exclusion and microscopy.
Briefly, cells were infected and transduced as described in Example 6 above. Following the transduction, about 1 μg/ml Ritonavir was added to the cell media and allowed to incubate with the cells for about 18 hours. The cells were then assayed for cell killing by conventional trypan blue exclusion and microscopy. […]

[3] = tested on: Jurkat T cells; assay: Co-transduction of uninfected Jurkat T cells with TAT-CPP32 and TAT-Protease, survival by trypan-blue exclusionary dye microscopy
Protocol: To test for activation of the TAT-CPP32 by TAT-Protease, 2×10^6 Jurkat T cells were placed in 2 ml of culture (RPMI media). To these cells, various combinations of control and experimental transducible proteins were added in 50-100 nM ranges, as follows:
The cells were assayed for survival at 18 hr post-addition by trypan-blue exclusionary dye microscopy. […] Thus, activation of TAT-CPP32 requires the presence of HIV protease.

[4] = tested on: Jurkat T cells infected with the NLHX strain of HIV-I; assay: Cytotoxicity of TAT-Casp3 on HIV infected Jurkat cultures, exclusionary dye viability analysis; settings: 1 μg/ml Ritonavir prior to 100 nM TAT-Casp3WT
Description: To make this determination, Jurkat T cells were infected for 7-14 days with the NLHX strain of HIV-I and examined microscopically for HIV cytopathic effects. See Westervelt, P., et al., Identification of a determinant within the HIV-1 surface envelope glycoprotein critical for productive infection of cultured primary monocytes. Proc. Natl. Acad. Sci USA 88: 3097 (1991). At the start of each transduction experiment approximately 50% of the culture was HIV positive. HIV infected cultures were transduced for 16 hr with 100 nM TAT-Casp3WT or TATCasp3MUT protein and then assayed for cell viability (FIG. 13). […] In addition, we detected both the appearance of cells containing <2N DNA content and cells with condensed nuclei in TAT-Casp3 treated cells.
To determine if TAT-Casp3WT induced apoptosis was dependent on active HIV Protease in the infected cultures, HIV infected cultures were pretreated with 1 μg/ml Ritonavir prior to transduction with 100 nM TAT-Casp3WT protein (FIG. 5). […] In addition, the observed increased survival of Ritonavir treated cells is consistent with increased longevity of protease inhibitor treated HIV infected cells. See Coffin, J. M., et al. (supra).
The specific killing of HIV infected cells shown in FIG. 5 is explained in more detail as follows. Jurkat T cells were infected for 7-14 days with HIV strain NLHX, then transduced with TAT-Casp3WT (WT) or TAT-Casp3MUT (MUT) proteins for 16 hr and assayed for cell viability. […] Ctrl, control addition of PBS to cultures; abscissa, % viability of HIV positive cells in the population at start of transduction; error bars represent SD.
(§1) 1. […] See Lissy, N. A., et al. (supra). […] See Ezhevsky, S. A., et al. (supra). […] See Xiang, J., et al., (supra). […] See Xiang, J., et al., (supra). […] See Ezhevsky, S. A., et al. (supra).

[5] = biological target: T1, HIV Protease (Human immunodeficiency virus type 1 group M subtype B, UniProt P04585); assay: In vivo substrate cleavage by co-transduced TAT-HIV Pr in Jurkat T cells, immunoblot
T1 construct: PCR cloning the HIV Protease gene from HXB2R HIV strain; 6xHis (from the pTAT vector) (N); made in house; the purified protein was added to Jurkat T cells
Protocol: To assay for in vivo cleavage, p 16(−) Jurkat T cells were transduced with 100 nM TAT-Ap16 or control TAT-p16 protein (no HIV cleavage site) alone or in combination with 50 nM TATHIV Pr fusion protein for 5 hr and analyzed by anti-p16 immunoblot for in vivo cleavage at the HIV A proteolytic cleavage site (FIG. 10A). […] Size analysis of the cleaved TAT-A-p 16 protein was consistent with retention of the residual HIV half site present on the N′ terminus of p 16 (FIG. 10A, see lane 4 vs. 5).
Further, the TAT-Casp3MUT protein was transduced in combination with TAT-HIV Pr protein into cells (FIG. 10B).
The in vivo processing in co-transduced cells shown in FIGS. 10A and 10B is explained in more detail as follows. FIG. 10A. Cultures of p16(−) Jurkat T cells were transduced with TAT-p 16 or TAT-A-p 16 substrate proteins in combination with TATHIV Pr proteins for 5 hr and subjected to anti-p 16 immunoblot analysis. […] WCE, HepG2 whole cell lysate containing wild type endogenous p16; A-p16, cleaved TAT-A-16 product retaining the HIV half site on p16. FIG. 10B. Cultures of Jurkat T cells were transduced with TATCasp3MUT protein (TAT-“D” site-p 17 domain-“A” site-p12 domain) alone or in combination with TAT-HIV Pr (Pr) protein as indicated and immunoblotted with anti-Caspase-3 antibodies specific for the p17 domain. TAT-D-p17-A, cleaved product of TAT-Casp3 containing the N′ terminal HIV A half site.
as §1

[6] = tested on: Jurkat T cells; assay: FACS and confocal analysis of FITC-labeled TAT fusion proteins added to Jurkat T cells; settings: FITC-labeled protein added to media of Jurkat T cells
Protocol: To test the ability of TAT-Casp3 proteins to transduce into cells, TAT-Casp3 proteins were conjugated to fluorescein (FITC), then added directly to the media of Jurkat T cells and analyzed by Flow Cytometry (FACS) (FIGS. 9B-C). Both TAT-Casp3WT and TAT-Casp3MUT proteins rancidly transduced into ˜100% of cells, achieving maximum intracellular concentration in less than 20 min. In addition, based on the narrow peak width before and after addition of FITC labeled proteins, individual cells within the population contain near identical intracellular concentrations of TAT-Casp3-FITC protein. […] Thus, TAT-Casp3 proteins readily transduce into 100% of all cells inca rapid and concentration-dependent fashion.
The generation and transduction of TAT fusion proteins shown in FIGS. 9A-E are explained in more detail as follows: FIG. 9A. Diagram depicting HIV cleavage site sequences and domains of TAT fusion proteins. FIGS. 9B-D. FACS kinetic analysis of fluorescein (FITC) labeled TAT-Casp3WT, TAT-Casp3MUT and TAT-HIV Pr proteins added to cells at 0, 20 and 30 min. FIG. 9E. FACS dose analysis of 3, 6, and 12 nM TAT-Casp3WT-FITC protein added to cells at I hr post-addition. Note rapid, concentration-dependent transduction of all FITC labeled protein into ˜100% of cells and near identical intracellular concentration within the population as measured by FACS peak width of control vs. transduced cells.
as §1

[7] = 50-100 nM, uninfected Jurkat T cells, 18 hr post-addition

Molecule | Intracellular Concentration [1] [X] | Rate Compared to TAT [1] | also measured
1 (AKIWFQNRRMKWKKEN; human) [compound 1] | 1 | = | 
2 (YGRKKRRQRRR; human) [compound 2] | 1 | = | 
3 (YARKARRQARR; human) [compound 3] | 10 | = | 
4 (YARAAARQARA; human) [compound 4] | 5 | = | 
5 (YARAARRAARR; human) [compound 5] | 10 | = | 
6 (YARAARRAARA; human) [compound 6] | 5 | = | 
7 (YARRRRRRRRR; human) [compound 7] | 5 | = | 
8 (YAAARRRRRRR; human) [compound 8] | 5 | = | 
10 (CTERQANFLGKIWP; human) [compound 10] | 1 | < | 
CC(C)c1nc(CN(C)C(=O)N[C@H](C(=O)N[C@@H](Cc2ccccc2)C[C@H](O)[C@H](Cc2ccccc2)NC(=O)OCc2cncs2)C(C)C)cs1 [Ritonavir, reference compound] |  |  | effect on the ability of TAT-CPP32 to kill infected cells ([2]; about 1 μg/ml Ritonavir added after transduction, about 18 hours): essentially blocked; effect of the protease inhibitor on TAT-CPP32 wild type killing ([3]; added to TAT-CPP32 wild type plus TAT-Protease experiment): loss of specific TAT-CPP32 wild type killing; effect of pretreatment on TAT-Casp3WT killing of HIV infected cells [4]: protection from TAT-Casp3WT induced apoptosis; also recorded: protects infected cells
RQIKIWFQNRRMKWKK [SEQ ID NO. 10, reference compound] |  |  | transduction rate relative to the TAT peptide (in words) [1]: slower transduction rate
B1 |  |  | killing of HIV-infected cells ([2]; about 35 to 45 nanomoler, about 18 hours post-transduction): not capable of killing; cytotoxicity when added alone [3, 7]: minimal cytotoxicity; loss of viable cells when added plus TAT-Protease [3, 7]: not
B2 |  |  | preference between HIV A site and D site ([5]; co-transduction with TAT-HIV Pr): HIV A site was preferentially cleaved over
B3 |  |  | cells transduced [6]: 100%; cleavage at the HIV cleavage site when co-transduced with TAT-HIV Pr ([5]; 100 nM substrate, 50 nM TAT-HIV Pr, Jurkat T cells, immunoblot): specific substrate cleavage

From US6645501B2, “Anti-pathogen system and methods of use thereof” (Washington University, priority 1997, dated 2003)
